The source made the active and inactive calls. Starred links: 1 amine or outer side, 2 acyl side, 3 side chain; linkers in the order of their positions; H or OH if unused. Non-standard residues stand in square brackets, D forms with d. Residues, ends and D or L forms follow the SMILES beside them. *: point of attachment. C20 diacid = O=C(O)CCCCCCCCCCCCCCCCCCC(=O)*; γGlu = O=C(O)[C@H](CCC(=O)[*:2])N[*:1]; Iva = CC[C@](C)(N)C(=O)O; PEG2 = NCCOCCOCCC(=O)O
Experiments:
Mus musculus [1] = test: Antifibrotic activity against BLM-induced C57BL/6 mouse pulmonary fibrosis model assessed as downregulation of Mmp-9 gene expression in lung tissue at 150 ug/kg, sc administered for 2 weeks starting from 7 days post BLM induction and measured after 21 days post BLM induction by RT-qPCR assay; type: functional, organism-based; conditions: dose 150.0 µg/kg
Mus musculus [2] = test: Antifibrotic activity against BLM-induced C57BL/6 mouse pulmonary fibrosis model assessed as reduction in Fn gene expression at 240 ug/kg/day, sc administered for 2 weeks starting from 7 days post BLM induction and measured after 21 days post BLM induction by ScRNA-sequencing analysis; type: functional, organism-based; conditions: dose 240.0 µg/kg/day
Mus musculus [3] = test: Antifibrotic activity against BLM-induced C57BL/6 mouse pulmonary fibrosis model assessed as reduction in spp1 gene expression at 240 ug/kg/day, sc administered for 2 weeks starting from 7 days post BLM induction and measured after 21 days post BLM induction by ScRNA-sequencing analysis; type: functional, organism-based; conditions: dose 240.0 µg/kg/day
A549 [4] = test: Antifibrotic activity against BLM-induced human A549 cells cocultured with RAW264.7 cells assessed as reduction in Vimentin expression at 10 uM after 24 hrs by Western blotting analysis; type: functional, cell-based
Mus musculus [5] = test: Antifibrotic activity against BLM-induced C57BL/6 mouse pulmonary fibrosis model assessed as reduction in TIMP-1 expression at 240 ug/kg/day, sc administered for 2 weeks starting from 7 days post BLM induction and measured after 21 days post BLM induction in presence of Clo-Lip; type: functional, organism-based; conditions: dose 240.0 µg/kg/day
Mus musculus [6] = test: Antifibrotic activity against BLM-induced C57BL/6 mouse pulmonary fibrosis model assessed as reduction in FN expression at 240 ug/kg/day, sc administered for 2 weeks starting from 7 days post BLM induction and measured after 21 days post BLM induction in presence of GM6001; type: functional, organism-based; conditions: dose 240.0 µg/kg/day
A549 [7] = test: Downregulation of EDP level in TNFalpha induced human A549 cells at 1 to 10 uM; type: functional, cell-based; conditions: dose 1-10 µM
Mus musculus [8] = test: Antifibrotic activity against BLM-induced C57BL/6 mouse pulmonary fibrosis model assessed as reduction in lung hydroxyproline content at 150 ug/kg, sc administered for 2 weeks starting from 7 days post BLM induction and measured after 21 days post BLM induction; type: functional, organism-based; conditions: dose 150.0 µg/kg
Mus musculus [9] = test: Antifibrotic activity against BLM-induced C57BL/6 mouse pulmonary fibrosis model assessed as reduction in Acta2 gene expression at 240 ug/kg/day, sc administered for 2 weeks starting from 7 days post BLM induction and measured after 21 days post BLM induction by ScRNA-sequencing analysis; type: functional, organism-based; conditions: dose 240.0 µg/kg/day
Mus musculus [10] = test: Antifibrotic activity against BLM-induced C57BL/6 mouse pulmonary fibrosis model assessed as reduction in Col3a1 gene expression at 240 ug/kg/day, sc administered for 2 weeks starting from 7 days post BLM induction and measured after 21 days post BLM induction by ScRNA-sequencing analysis; type: functional, organism-based; conditions: dose 240.0 µg/kg/day
Mus musculus [11] = test: Antifibrotic activity against BLM-induced C57BL/6 mouse pulmonary fibrosis model assessed as increase in MMP-12 expression at 240 ug/kg/day, sc administered for 2 weeks starting from 7 days post BLM induction and measured after 21 days post BLM induction; type: functional, organism-based; conditions: dose 240.0 µg/kg/day
Mus musculus [12] = test: Antifibrotic activity against BLM-induced C57BL/6 mouse pulmonary fibrosis model assessed as reduction in alpha-SMA expression at 240 ug/kg/day, sc administered for 2 weeks starting from 7 days post BLM induction and measured after 21 days post BLM induction in presence of GM6001; type: functional, organism-based; conditions: dose 240.0 µg/kg/day
Mus musculus [13] = test: Antifibrotic activity against BLM-induced C57BL/6 mouse pulmonary fibrosis model assessed as improvement in lung condition at 30 to 240 ug/kg, sc administered for 2 weeks starting from 7 days post BLM induction and measured after 21 days post BLM induction; type: functional, organism-based; conditions: dose 30-240 µg/kg
A549 [14] = test: Inhibition of EBP signaling pathway in TGFalpha induced human A549 cells assessed as reduction in AKT phosphorylation at 10 uM incubated for 24 hrs by Western blotting analysis; type: cell-based
[15] = Stability in rat serum measured upto 48 hrs by LC-MS/MS method; type: ADME, cell-free
TC-1 = test: Inhibition of EBP signaling pathway in TGFalpha induced mouse TC-1 cells assessed as reduction in ERK phosphorylation at 10 uM incubated for 24 hrs by Western blotting analysis; type: cell-based
A549 [16] = test: Antifibrotic activity against BLM-induced human A549 cells cocultured with RAW264.7 cells assessed as reduction in Fn expression at 10 uM after 24 hrs by Western blotting analysis; type: functional, cell-based
Mus musculus [17] = test: Antifibrotic activity against BLM-induced C57BL/6 mouse pulmonary fibrosis model assessed as reduction in Vimentin expression at 240 ug/kg/day, sc administered for 2 weeks starting from 7 days post BLM induction and measured after 21 days post BLM induction in presence of Clo-Lip; type: functional, organism-based; conditions: dose 240.0 µg/kg/day
A549 [18] = test: Inhibition of EBP signaling pathway in TGFalpha induced human A549 cells assessed as reduction in ERK phosphorylation at 10 uM incubated for 24 hrs by Western blotting analysis; type: cell-based
Mus musculus [19] = test: Antifibrotic activity against BLM-induced C57BL/6 mouse pulmonary fibrosis model assessed as inhibition of activated fibroblast signature at 240 ug/kg/day, sc administered for 2 weeks starting from 7 days post BLM induction and measured after 21 days post BLM induction by gene enrichment analysis; type: functional, organism-based; conditions: dose 240.0 µg/kg/day
Homo sapiens = species on record: Homo sapiens; test: Inhibition of neuraminidase (unknown origin) at 0.005 to 500 uM; conditions: dose 0.005-500 µM
A549 [20] = test: Antifibrotic activity against TNFalpha-induced human A549 cells assessed as downregulation of Fn expression level at 10 uM incubated for 24 hrs by Western blotting analysis; type: functional, cell-based
[21] = Half-life in Sprague-Dawley rat serum at 0.04 mg/kg, sc administered as single dose measured upto 10 days by LC-MS/MS method; type: ADME, organism-based; conditions: time < 10 day
Mus musculus [22] = test: Antifibrotic activity against BLM-induced C57BL/6 mouse pulmonary fibrosis model assessed as reduction in proportion of fibroblasts at 240 ug/kg/day, sc administered for 2 weeks starting from 7 days post BLM induction and measured after 21 days post BLM induction; type: functional, organism-based; conditions: dose 240.0 µg/kg/day
Mus musculus [23] = test: Antifibrotic activity against BLM-induced C57BL/6 mouse pulmonary fibrosis model assessed as downregulation of Fn gene expression in lung tissue at 150 ug/kg, sc administered for 2 weeks starting from 7 days post BLM induction and measured after 21 days post BLM induction by RT-qPCR assay; type: functional, organism-based; conditions: dose 150.0 µg/kg
Mus musculus [24] = test: Antifibrotic activity against BLM-induced C57BL/6 mouse pulmonary fibrosis model assessed as reduction in Col5a1 gene expression at 240 ug/kg/day, sc administered for 2 weeks starting from 7 days post BLM induction and measured after 21 days post BLM induction by ScRNA-sequencing analysis; type: functional, organism-based; conditions: dose 240.0 µg/kg/day
Mus musculus [25] = test: Antifibrotic activity against BLM-induced C57BL/6 mouse pulmonary fibrosis model assessed as reduction in Fstl1 gene expression at 240 ug/kg/day, sc administered for 2 weeks starting from 7 days post BLM induction and measured after 21 days post BLM induction by ScRNA-sequencing analysis; type: functional, organism-based; conditions: dose 240.0 µg/kg/day
Mus musculus [26] = test: Antifibrotic activity against BLM-induced C57BL/6 mouse pulmonary fibrosis model at 240 ug/kg/day, sc administered for 2 weeks starting from 7 days post BLM induction and measured after 21 days post BLM induction in presence of Clo-Lip; type: functional, organism-based; conditions: dose 240.0 µg/kg/day
A549 [27] = test: Antifibrotic activity against TNFalpha-induced human A549 cells assessed as downregulation of vimentin expression level at 10 uM incubated for 24 hrs by Western blotting analysis; type: functional, cell-based

CC[C@](C)(NC(=O)[C@@H](NC(=O)CCOCCOCCNC(=O)CCOCCOCCNC(=O)CC[C@H](NC(=O)CCCCCCCCCCCCCCCCCCC(=O)O)C(=O)O)C(C)C)C(=O)NCC(=O)N[C@@H](CO)C(=O)N1CCC[C@H]1C(=O)N[C@@H](CO)C(=O)N[C@@H](C)C(=O)N[C@@H](CCC(N)=O)C(=O)N[C@@H](CCC(=O)O)C(=O)N[C@@H](CCC(=O)O)C(=O)N[C@@H](C)C(=O)N[C@@H](CO)C(=O)N1CCC[C@H]1C(=O)N[C@@H](C)C(N)=O ({C20 diacid-γGlu-PEG2-PEG2}-V[Iva]GSPSAQEEASPA-NH2)
Stable: Stability [15]
active: Activity (Mus musculus [1]) | Activity (Mus musculus [2]) | Activity (Mus musculus [3]) | Activity (A549 [4]) | Activity (A549 [7]) Dose-Dependent Effect | Activity (Mus musculus [8]) | Activity (Mus musculus [9]) | Activity (Mus musculus [10]) | Activity (Mus musculus [11]) | Activity (Mus musculus [13]) | inhibition (A549 [14]) | inhibition (TC-1) | Activity (A549 [16]) | inhibition (A549 [18]) | Activity (Mus musculus [19]) | inhibition (Homo sapiens) | Activity (A549 [20]) | Activity (Mus musculus [22]) | Activity (Mus musculus [23]) | Activity (Mus musculus [24]) | Activity (Mus musculus [25]) | Activity (A549 [27])
33.4 h: half-life [21]
inactive: Activity (Mus musculus [5]) | Activity (Mus musculus [6]) | Activity (Mus musculus [12]) | Activity (Mus musculus [17]) | Activity (Mus musculus [26])

From ChEMBL document CHEMBL5543137, “Design and Synthesis of Novel Ultralong-Acting Peptides as EDP-EBP Interaction Inhibitors for Pulmonary Fibrosis Treatment” (J Med Chem, 2024)
